Test results: patent publication US8653075B2, “Therapeutic methods employing substituted piperidines which are CCR3 antagonists” (Boehringer Ingelheim International GmbH, priority 2009, dated 2014)

Biological target: T1, human chemokine receptor CCR3 (Homo sapiens, UniProt P51677)
T1 construct: expressed in transfected cells; host or cells: K562 cell line (hCCR3-C1 cells), membrane preparation
T1 sequence (P51677 1-355): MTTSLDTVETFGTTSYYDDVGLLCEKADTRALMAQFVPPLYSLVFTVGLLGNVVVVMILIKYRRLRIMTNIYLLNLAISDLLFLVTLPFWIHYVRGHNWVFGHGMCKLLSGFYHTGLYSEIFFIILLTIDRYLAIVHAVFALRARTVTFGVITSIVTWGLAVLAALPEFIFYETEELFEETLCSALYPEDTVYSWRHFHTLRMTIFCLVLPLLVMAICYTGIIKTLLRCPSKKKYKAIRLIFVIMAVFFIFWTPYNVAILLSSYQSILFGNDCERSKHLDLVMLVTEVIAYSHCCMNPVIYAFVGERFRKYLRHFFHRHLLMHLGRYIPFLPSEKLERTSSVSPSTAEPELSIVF
Experiment: CCR3 receptor binding assay (SPA, 125I-eotaxin-1 displacement, hCCR3-C1 K562 cell membranes)
Details: human Eotaxin-1 at human CCR3-Rezeptor; for inhibition at 1 µM: read-out: CCR3 % inh @ 1 μM; for Ki: dose range 0.1 to 10000 nM
Summary of the method: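 SPA displacement of recombinant human 125I-eotaxin-1 (30.000 dpm per well) from membranes of CCR3-transfected K562 cells (0.5-10 μg protein/well) on WGA beads. Buffer was 25 mM HEPES, 25 mM MgCl2, 1 mM CaCl2, 0.1% BSA; incubation 2 h at room temperature. Specific binding was total minus NSB (unlabelled eotaxin-1), giving % inhibition and Ki.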

Row | inhibition at 1 µM (1 μM test compound) [%] | Ki [nM] | CCR3 % inh @ 1 μM (1 μM test compound, 1 µM) [%] | Structure (SMILES)
1 | 93 | 41 | – | Cc1cc(CN2CCC(N3C(=O)N(C)C[C@H]3C(=O)Nc3cc(C(C)(C)C)no3)CC2)ccc1Cl [Example 124]
2 | 99 | 13 | – | COc1cc(NC(=O)[C@H]2CCC(=O)N2C2CCN(Cc3ccc(Cl)c(C)c3)CC2)cc(C(=O)N(C)C)c1 [Example 173]
3 | 60 | 545 | – | Cc1cc(CN2CCC(N3C(=O)CC[C@@H]3C(=O)Nc3ccc4c(c3)CC(N(C)C)C4)CC2)ccc1Cl (stereo partly shown) [Example 64]
4 | 98 | 6 | – | Cc1cc(NC(=O)[C@H]2CCC(=O)N2C2CCN(Cc3ccc(Cl)c(C)c3)CC2)cc(C(=O)N(C)C)c1 [Example 167]
5 | 75 | 229 | – | Cc1cccc(NC(=O)[C@@H]2CCC(=O)N2C2CCN(Cc3ccc(Cl)c(C)c3)CC2)n1 [Example 40]
6 | 97 | 24 | – | CNC(=O)c1cc(F)cc(NC(=O)[C@H]2CCC(=O)N2C2CCN(Cc3ccc(Cl)c(C)c3)CC2)c1 [Example 177]
7 | 60 | 540 | – | Cc1cc(CN2CCC(N3C(=O)CC[C@@H]3C(=O)N[C@H]3CCN(C(=O)OC(C)(C)C)C3)CC2)ccc1Cl [Example 14]
8 | 99 | 5 | – | Cc1cc(CN2CCC(N3C(=O)CC[C@@H]3C(=O)Nc3cc(C(=O)N(C)C)cc(C(=O)N(C)C)c3)CC2)ccc1Cl [Example 105]
9 | 44 | 1250 | – | CN1C[C@H](C(=O)Nc2cc(C3CC3)nn2C)N(C2CCN(Cc3ccc(OC(F)(F)F)c(F)c3)CC2)C1=O [Example 197]
10 | 99 | 7 | – | CCC(C)NC(=O)c1cccc(NC(=O)[C@H]2CCC(=O)N2C2CCN(Cc3ccc(Cl)c(C)c3)CC2)c1 (stereo partly shown) [Example 143]
11 | 75 | 232 | – | COc1cc(C(=O)N(C)C)cc(NC(=O)[C@H]2CCC(=O)N2C2CCN(Cc3ccc(Cl)c(C)c3)CC2)n1 [Example 183]
12 | 99 | 10 | – | Cc1cc(CN2CCC(N3C(=O)CC[C@@H]3C(=O)Nc3cccc(C(=O)NC4CC4)c3)CC2)ccc1Cl [Example 148]
13 | 75 | 237 | – | CNC(=O)c1cccc(NC(=O)[C@H]2CCC(=O)N2C2CCN(Cc3ccc(F)c(Cl)c3)CC2)c1 [Example 203]
14 | – | – | 55 | Cc1cc(CN2CCC(N3C(=O)CC[C@H]3C(=O)NCc3ccnn3C)CC2)ccc1Cl [Example 69]
15 | 98 | 17 | – | Cc1cc(CN2CCC(N3C(=O)OC[C@H]3C(=O)Nc3cc(C4CC4)nn3C)CC2)ccc1Cl [Example 117]
16 | 95 | 35 | – | Cc1cc(CN2CCC(N3C(=O)N(C)C[C@@H]3C(=O)Nc3cccc(-c4ccncc4)c3)CC2)ccc1Cl [Example 120]
17 | 99 | 8 | – | Cc1cc(CN2CCC(N3C(=O)CC[C@@H]3C(=O)Nc3cc(C(=O)N(C)C)ccn3)CC2)ccc1Cl [Example 147]
18 | 96 | – | – | Cc1cc(-c2nc[nH]n2)cc(NC(=O)C2CCC(=O)N2C2CCN(Cc3ccc(Cl)c(C)c3)CC2)n1 (stereo not shown) [Example 210]
19 | 76 | 221 | – | Cc1cc(CN2CCC(N3C(=O)CC[C@H]3C(=O)N3CCc4cccc(F)c4C3)CC2)ccc1Cl [Example 58]
20 | 101 | 4 | – | Cc1cc(CN2CCC(N3C(=O)CC[C@@H]3C(=O)Nc3cccc(-c4nnnn4C)c3)CC2)ccc1Cl [Example 1]
21 | – | 13 | – | Cc1cc(-c2nc[nH]n2)cc(NC(=O)[C@H]2CCC(=O)N2C2CCN(Cc3ccc(Cl)c(C)c3)CC2)n1 [Example 210]
22 | 99 | 13 | – | CNC(=O)c1cc(NC(=O)[C@H]2CCC(=O)N2C2CCN(Cc3ccc(Cl)c(C)c3)CC2)cc(OC)c1 [Example 174]
23 | 98 | 18 | – | CCn1cc(NC(=O)[C@H]2CCC(=O)N2C2CCN(Cc3ccc(Cl)c(C)c3)CC2)cc1C(=O)OC [Example 91]
24 | 98 | 6 | – | Cc1cc(CN2CCC(N3C(=O)CC[C@@H]3C(=O)Nc3cccc(-c4nnn(C)n4)c3)CC2)ccc1Cl [Example 5]
25 | 101 | 5 | – | Cc1cc(CN2CCC(N3C(=O)CC[C@@H]3C(=O)Nc3cc(C(=O)N4CCCC4)ccn3)CC2)ccc1Cl [Example 139]
26 | 84 | 13 | – | Cc1cc(CN2CCC(N3C(=O)CC[C@@H]3C(=O)Nc3cccc(S(=O)(=O)N4CCCCC4)c3)CC2)ccc1Cl [Example 22]
27 | 99 | 6 | – | Cc1cc(NC(=O)[C@H]2CCC(=O)N2C2CCN(Cc3ccc(Cl)c(C)c3)CC2)cc(C(=O)N(C)CCO)c1 [Example 175]

Row | inhibition at 1 µM (1 μM test compound) [%] | Ki [nM] | CCR3 % inh @ 1 μM (1 μM test compound, 1 µM) [%] | Structure (SMILES)
28 | 98 | 4 | – | CNC(=O)c1cc(NC(=O)[C@H]2CCC(=O)N2C2CCN(Cc3ccc(Cl)c(C)c3)CC2)cc(C(F)(F)F)c1 [Example 2]
29 | 44 | 873 | – | Cc1cc(CN2CCC(N3C(=O)CC[C@H]3C(=O)NCc3ccccc3)CC2)ccc1Cl [Example 46]
30 | 70 | 334 | – | Cc1cc(CN2CCC(N3C(=O)N(C)C[C@H]3C(=O)Nc3ccno3)CC2)ccc1Cl [Example 129]
31 | 94 | 31 | – | Cc1cc(CN2CCC(N3C(=O)CC[C@@H]3C(=O)NC3CCC(NS(=O)(=O)c4ccccc4)CC3)CC2)ccc1Cl (stereo partly shown) [Example 29]
32 | 100 | 3 | – | CNC(=O)c1cc(NC(=O)[C@H]2CCC(=O)N2C2CCN(Cc3ccc(Cl)c(C)c3)CC2)cc(C(=O)N(C)C)c1 [Example 106]
33 | 24 | 2400 | – | Cc1cc(CN2CCC(N3C(=O)CC[C@@H]3C(=O)N(C)c3ccccc3)CC2)ccc1Cl [Example 104]
34 | 99 | 23 | – | Cc1cc(CN2CCC(N3C(=O)CC[C@@H]3C(=O)Nc3cccc(C(=O)NCC(C)(C)C)c3)CC2)ccc1Cl [Example 163]
35 | 91 | 77 | – | Cc1cc(CN2CCC(N3C(=O)N(C)C[C@@H]3C(=O)Nc3cc(C4CC4)nn3C)CC2)ccc1Cl [Example 130]
36 | 96 | 11 | – | CCS(=O)(=O)N(CC(=O)N(C)C)c1cccc(NC(=O)[C@H]2CCC(=O)N2C2CCN(Cc3ccc(Cl)c(C)c3)CC2)c1 [Example 21]
37 | 93 | 50 | – | Cc1cc(CN2CCC(N3C(=O)CC[C@@H]3C(=O)Nc3ccc4[nH]ncc4c3)CC2)ccc1Cl [Example 31]
38 | 84 | 88 | – | CCNS(=O)(=O)c1cccc(NC(=O)[C@@H]2CCC(=O)N2C2CCN(Cc3ccc(Cl)c(C)c3)CC2)c1 [Example 12]
39 | 100 | 7 | – | Cc1cc(CN2CCC(N3C(=O)CC[C@@H]3C(=O)Nc3cccc(C(=O)N(C)C4CC4)c3)CC2)ccc1Cl [Example 144]
40 | 100 | 11 | – | Cc1cc(CN2CCC(N3C(=O)CC[C@@H]3C(=O)Nc3cc(F)cc(C(=O)N(C)C)c3)CC2)ccc1Cl [Example 176]
41 | 71 | 373 | – | Cc1cc(CN2CCC(N3C(=O)CC[C@@H]3C(=O)N3CCc4ccccc43)CC2)ccc1Cl [Example 13]
42 | 99 | 22 | – | Cc1nccc(-c2cccc(NC(=O)[C@H]3CCC(=O)N3C3CCN(Cc4ccc(Cl)c(C)c4)CC3)c2)n1 [Example 24]
43 | 80 | 159 | – | Cc1cc(CN2CCC(N3C(=O)CC[C@@H]3C(=O)Nc3cccnc3)CC2)ccc1Cl [Example 36]
44 | 98 | 15 | – | CCn1cc(NC(=O)[C@H]2CCC(=O)N2C2CCN(Cc3ccc(Cl)c(C)c3)CC2)cc1C(=O)NC [Example 155]
45 | 97 | 16 | – | CNC(=O)c1cc(NC(=O)[C@H]2CCC(=O)N2C2CCN(Cc3ccc(Cl)c(C)c3)CC2)ccc1OC [Example 180]
46 | 92 | 27 | – | Cc1cc(CN2CCC(N3C(=O)CC[C@@H]3C(=O)Nc3cc(C4CC4)nn3C)CC2)ccc1Cl [Example 11]
47 | 78 | 235 | – | COc1cccc2c1CN(C(=O)[C@@H]1CCC(=O)N1C1CCN(Cc3ccc(Cl)c(C)c3)CC1)CC2 [Example 55]
48 | 99 | 9 | – | Cc1cc(CN2CCC(N3C(=O)CC[C@@H]3C(=O)Nc3cccc(N(CC(=O)N(C)C)S(C)(=O)=O)c3)CC2)ccc1Cl [Example 8]
49 | 46 | 927 | – | Cc1cc(CN2CCC(N3C(=O)CC[C@@H]3C(=O)N3CCc4ccc([N+](=O)[O-])cc4C3)CC2)ccc1Cl [Example 74]
50 | 102 | 1 | – | Cc1cc(C(=O)N2CCCC2)cc(NC(=O)[C@H]2CCC(=O)N2C2CCN(Cc3ccc(Cl)c(C)c3)CC2)n1 [Example 132]
51 | 63 | 552 | – | Cc1cc(CN2CCC(N3C(=O)CC[C@@H]3C(=O)N[C@H]3CC[C@H](NC(=O)Nc4ccccc4)CC3)CC2)ccc1Cl [Example 44]
52 | 97 | 58 | – | Cc1cc(CN2CCC(N3C(=O)N(C)C[C@H]3C(=O)Nc3cccc(-c4cscn4)c3)CC2)ccc1Cl [Example 125]
53 | 95 | 45 | – | Cc1cc(CN2CCC(N3C(=O)CC[C@@H]3C(=O)Nc3cc(-n4cccn4)ccn3)CC2)ccc1Cl [Example 101]
